# Source: US7398161B2, “Sampling method and sampling device, and logD measuring method and logD measuring system” (Banyu Pharmaceutical Co., Ltd., priority 2004, dated 2008)
# Assay: not given
# Conditions: J. Med. Chem. 2001, 44, 2490-2497; cited from earlier work
row,Structure (SMILES),"logD, Literature value"
1,C=CCc1ccccc1OCC(O)CNC(C)C (stereo not drawn) [Alprenolol],0.97
2,NC(=O)N1c2ccccc2C=Cc2ccccc21 [Carbamazepine],2.19
3,C[C@@H]1C[C@H]2[C@@H]3CCC4=CC(=O)C=C[C@]4(C)[C@@]3(F)[C@@H](O)C[C@]2(C)[C@@]1(O)C(=O)CO [Dexamethason],1.83
4,COc1ccc([C@@H]2Sc3ccccc3N(CCN(C)C)C(=O)[C@@H]2OC(C)=O)cc1 [Diltiazem],2.06
5,CC(C)(C)NCC(O)c1cc(O)cc(O)c1 (stereo not drawn) [Terbutaline],−1.35
6,c1ccc(-c2ccc(C(c3ccccc3)n3ccnc3)cc2)cc1 (stereo not drawn) [bifonazole],4.77

# Assay: physchem
# Conditions: not given
row,Structure (SMILES),logD
1,NC(=O)N1c2ccccc2C=Cc2ccccc21 [Carbamazepine],1.8
2,CN(C)CCCN1c2ccccc2Sc2ccc(Cl)cc21 [Chlorpromazine],3.5
3,COc1ccc([C@@H]2Sc3ccccc3N(CCN(C)C)C(=O)[C@@H]2OC(C)=O)cc1 [Diltiazem],2.3
4,COCCc1ccc(OCC(O)CNC(C)C)cc1 (stereo not drawn) [Metoprolol],0.3
5,c1ccc(-c2ccc(C(c3ccccc3)n3ccnc3)cc2)cc1 (stereo not drawn) [bifonazole],5.2
6,C[C@]12CC[C@@H]3c4ccc(O)cc4CC[C@H]3[C@@H]1CC[C@@H]2O [estradiol],3.9

# Assay: logD measurement by sampling of octanol/buffer two-layer sample with plug liquid, HPLC and mass spectrometer
# Conditions: octanol/buffer solution
row,Structure (SMILES),logD
1,C=CCc1ccccc1OCC(O)CNC(C)C (stereo not drawn) [Alprenolol],1.2
2,CC(C)(C)NCC(O)c1cc(O)cc(O)c1 (stereo not drawn) [Terbutaline],-1.9

# Same assay, conditions: octanol/buffer solution; average of three measurements (only one measurement for amiodarone)
row,Structure (SMILES),"logD, Measured value"
1,C[C@@H]1C[C@H]2[C@@H]3CCC4=CC(=O)C=C[C@]4(C)[C@@]3(F)[C@@H](O)C[C@]2(C)[C@@]1(O)C(=O)CO [Dexamethason],1.9
